Assay results as given in article PMC3114339 (Diabetes Care, 2011).

Test system: type 2 diabetic subjects
Test: Euglycemic glucose clamp for 32 h after s.c. injection of basal insulin
Type: in vivo, human

Substance	interquartile range in time of duration of action (plasma glucose >136 mg/dL) (32-h clamp, statistical significance achieved only versus detemir)	mean GIR AUC0–32 h greater with glargine than NPH (32-h euglycemic clamp, 0.4 units/kg s.c., relative difference versus NPH)	mean GIR AUC0–32 h greater with glargine than detemir (32-h euglycemic clamp, 0.4 units/kg s.c., relative difference versus detemir)	plasma free fatty acid concentrations higher with detemir compared with glargine (throughout the 32-h clamp study, P < 0.001)	plasma free fatty acid concentrations higher with detemir compared with NPH (throughout the 32-h clamp study, P = 0.003)
glargine	smaller interquartile range in time of duration of action than NPH and detemir	31%	42%	–	–
detemir	–	–	–	+26%	+15%
